Measured values from publication PMC9308172 (Journal of medicinal chemistry, 2017).
Read-outs that look alike come from different tables or passages of the source.

Assays:
[1] = biological target: T1, M2TMWT (Influenza A virus, UniProt P0DOF5); details: cited from earlier work
[2] = biological target: T1, M2TMWT; type: binding
[3] = tested on: A/California/07/2009 (H1N1) M2: N31; details: cited from earlier work

T1 sequence (P0DOF5 22-46 limits assumed): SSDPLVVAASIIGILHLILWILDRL

For `CC12CC3CC(CC(C3)C13CCCN3)C2` (stereo not drawn) [Compound 8, 1′-Methylspiro[pyrrolidine-2,2′-adamantane]], the TΔS [1] is listed as 3 ± 0.37 kcal/mol, the ΔG [1] is listed as -8.081 ± 0.201 kcal/mol and the ΔH [1] is listed as -5.079 ± 0.311 kcal/mol.
For `CCC1(N)C2CC3CC(C2)CC1C3` (stereo not drawn) [Compound 4], the TΔS [1] is listed as 1.38 ± 0.251 kcal/mol, the ΔG [1] is listed as -8.521 ± 0.129 kcal/mol and the ΔH [1] is listed as -7.139 ± 0.21 kcal/mol.
`NC1(C23CC4CC(CC(C4)C2)C3)CCCC1` [Compound 9] showed a ΔG [2] of -6.637 ± 0.189 kcal/mol.
For `NC1C2CC3CC(C2)CC1C3` (stereo not drawn) [Compound 2], the TΔS [1] is given as 0.93 ± 0.44 kcal/mol, the ΔG [1] is given as -7.959 ± 0.129 kcal/mol and the ΔH [1] is given as -7.029 ± 0.421 kcal/mol. The “% block after 3 min” value [3] was 13 ± 3 (100 μM; 2) % and the “% block after 30 min” value [3] was 16 (100 μM; 1) %.
In the case of `C1CNC2(C1)C1CC3CC(C1)CC2C3` (stereo not drawn) [Compound 6], the TΔS [1] is listed as 3.97 ± 0.614 kcal/mol, the ΔG [1] is listed as -9.109 ± 0.44 kcal/mol and the ΔH [1] is listed as -5.136 ± 0.421 kcal/mol.
For `CCCC1(N)C2CC3CC(C2)CC1C3` (stereo not drawn) [Compound 5], the TΔS [1] is listed as 0.932 ± 0.347 kcal/mol, the ΔG [1] is listed as -8.707 ± 0.165 kcal/mol and the ΔH [1] is listed as -7.796 ± 0.308 kcal/mol. The “% block after 3 min” value [3] was 0 ± 5 (100 μM; 2) % and the “% block after 30 min” value [3] was 9 ± 10 (100 μM, 3) %.
In the case of `CN1CCCC12C1CC3CC(C1)CC2C3` (stereo not drawn) [Compound 7], the TΔS [1] is given as 4.46 ± 0.361 kcal/mol, the ΔG [1] is given as -8.279 ± 0.229 kcal/mol and the ΔH [1] is given as -3.819 ± 0.28 kcal/mol.
In the case of `NC12CC3CC(CC(C3)C1)C2` [Compound 1, Amantadine, reference compound], the TΔS [1] is given as 1.11 ± 0.521 kcal/mol, the ΔG [1] is given as -7.77 ± 0.141 kcal/mol and the ΔH [1] is given as -6.661 ± 0.5 kcal/mol. For the same molecule, the “% block after 3 min” value [3] was 14 ± 2 (100 μM; 26) %.
In the case of `CC1(N)C2CC3CC(C2)CC1C3` (stereo not drawn) [Compound 3], the TΔS [1] is given as 1.51 ± 0.289 kcal/mol, the ΔG [1] is given as -8.31 ± 0.129 kcal/mol and the ΔH [1] is given as -6.79 ± 0.261 kcal/mol.
